Literature values in article PMC6095934, “Impact of rifampicin-inhibitable transport on the liver distribution and tissue kinetics of erlotinib assessed with PET imaging in rats” (EJNMMI Research, 2018).

Legend:
[1] = NSCLC patients, 150 mg erlotinib once daily
human OATP2B1 [2] = details: in vitro, transfected cells
MRP2 (ABCC2) [3] = tested on: MRP2 (ABCC2); parameters: method as in PMID 18723475
OAT1 [4] = tested on: OAT1; parameters: method as in PMID 21088257
OAT2 = tested on: OAT2; parameters: method as in PMID 21088257
OAT3 [5] = tested on: OAT3; parameters: method as in PMID 21088257
OCT2 [6] = tested on: OCT2; parameters: method as in PMID 21088257, PMID 26976869
[7] = tested on: organic anion transporter 2 (OAT2, SLC22A7); details: in vitro
MRP2 (ABCC2) [8] = tested on: MRP2 (ABCC2); parameters: method as in PMID 23440558; details: canalicular side of hepatocytes
OAT1 [9] = tested on: OAT1
OAT3 [10] = tested on: OAT3
OCT2 [11] = tested on: OCT2; parameters: method as in PMID 21088257, PMID 26976869; remark: listed apart in the source
OATP4C1 = tested on: OATP4C1; parameters: method as in PMID 28550055
human OATP2B1 [12] = tested on: human OATP2B1
[13] = tested on: organic cation transporter 1 (OCT1, SLC22A1)

Compound	interpatient variability in area under the curve (AUC) [1] [%]	interpatient variability in trough plasma concentrations [1] [%]	transport by human OATP2B1 (human OATP2B1 [2])	substrate of MRP2 (MRP2 (ABCC2) [3])	transport by OAT1 (OAT1 [4])	transport by OAT2 (OAT2)	substrate of OAT3 (OAT3 [5])	substrate of OCT2 (OCT2 [6])	Ki (rOATP1B2) [µM]	Ki (rOATP1A1) [µM]	inhibition of OAT2 [7]	inhibition of MRP2 (MRP2 (ABCC2) [8])	inhibition of OAT1 (OAT1 [9])	inhibition of OAT3 (OAT3 [10])	inhibition of OCT2 (OCT2 [11])	inhibition of OATP4C1 (OATP4C1)	IC50 (human OATP1B1) [µM]	IC50 (human OATP1B3) [µM]	IC50 (human OATP2B1 [12]) [µM]	Ki [13] [µM]
C#Cc1cccc(Nc2ncnc3cc(OCCOC)c(OCCOC)cc23)c1 [erlotinib, Erlotinib]	51	64	specifically transported	not a substrate	neither transported	neither transported	substrate	substrate												
CO[C@H]1/C=C/O[C@@]2(C)Oc3c(C)c(O)c4c(O)c(c(/C=N/N5CCN(C)CC5)c(O)c4c3C2=O)NC(=O)/C(C)=C\C=C\[C@H](C)[C@H](O)[C@@H](C)[C@@H](O)[C@@H](C)[C@H](OC(C)=O)[C@@H]1C [rifampicin, Rifampicin]									0.79	18	inhibited neither	potent inhibitor	inhibitor	not	not inhibited	not an inhibitor	1.9 ± 0.16	6.4 ± 0.5	91 ± 14.6	> 100
